Data published in US5723496A, “Method for prevention and treatment of harmful effects of intracellular acidosis” (priority 1995, dated 1998).
“Also recorded” adds a separate entry of the source. Counter-ions that a name gives are not always drawn. Like-named read-outs stand apart in the source and are kept apart here.

Experiments:
[1] = design: species or system gerbil; conditions: in vivo
Method: Adult male gerbils (ca. 70 g) were divided into three groups of 5 gerbils each. Control group received saline and experimental group received GES. Taurine group served as an additional control. […] The saline group received 0.25 ml of saline injections.
After two weeks, animals were sacrificed by exsanguination under pentobarbital anesthesia. Brains were removed and fixed in liquid nitrogen. The frozen brains were pulverized in a liquid nitrogen cooled mortar and pestle, and mixed with 4 volumes of 0.5N powdered frozen perchloric acid. The powder mixture was centrifuged in liquid nitrogen cooled centrifuge tubes at 16,000 rpm at -4° C. for 30 minutes. The supernatant was removed and titrated to a pH of 9.0-9.5 by the addition of potassium bicarbonate. The solution was stored in an ice bath for 15 minutes and the potassium perchlorate precipitate was removed by centrifugation at 16,000 rpm at -4° C.
Aliquots (0.5 ml) of the extracts obtained above were placed on a dual bed ion exchange column containing 6×0.5 cm Dowex AG1 anion exchange resin (chloride form) layered over 6×0.5 cm Dowex AG50 cation exchange resin (hydrogen form). Water (3 ml) then added to the column. The eluent, guanidinoethyl sulfonate, was free from other naturally occurring guanidino compounds, such as arginine. […] After 18 min., absorbance was read at 545 nm using a Gilford Spectrophotometer to determine brain GES level.

[2] = tested on: taurine transport into the brain; conditions: sulfate; cited from earlier work
[3] = tested on: adult mice exposed to anoxia; assay: survival of adult mice exposed to anoxia; format: in vivo, Adult Swiss mice; design: mortality, 2.5 minutes of anoxia / protection against 2.5 minutes anoxia: concentration or dose not given beside the values; conditions: for protection against anoxia / survival (in words): sulfate
Method: Adult Swiss mice (BK-1 males, 20 g) purchased from Bantin & Kingman, Fremont, Calif. were used. Each batch consisted of 10 mice. Within each batch five mice were selected randomly as experimental animals and the remaining five as controls. Experimental mice received daily intraperitoneal injections of 0.25 ml of GES (50 mg/ml) for 14 days.
At day 14, all mice within the same batch (5 experimental and 5 each of the […]) were placed in a specially designed chamber (26.5×24.5×21.0 cm). Anoxia/hypoxia was produced by infusion of pure nitrogen gas ([…]) into the chamber for 2.5 or 2.75 minutes. Anoxia/hypoxia was reversed immediately after these intervals by removing the chamber and placing the mice in a room air environment.
The results are shown in FIG. 1 and discussed in detail above.

[4] = in vivo, sulfate, cited from earlier work
[5] = tested on: post-ischemia hyperactivity; assay: motor activity (distance traveled) before and after ischemia; format: in vivo, gerbil
Method: Ischemia was induced as described above. Motor activity was analyzed using a PC driven automatic behavior analyzer as follows. Animals were placed individually in automated motor activity chambers (Omnitech Digiscan, Columbus, Ohio). A horizontally aligned array of […] infrared beams on each side of the chamber (39×39×39 cm high), located 2.5 cm above the floor and 2.5 cm apart, detected animals movements. […] Animals were studied prior to and 1, 2, 3, 7 day after induction of ischemia. Motor activity was monitored for 6 hours between 11:00 pm and 5:00 am.

[6] = tested on: mouse brain intracellular acidosis; assay: in vivo brain pH before and after 2 min anoxia (Example 4); design: species or system mice; conditions: for brain pH after anoxia / brain pH before anoxia: mice, 3.75 mmole/kg/day i.p., 14 days; for brain pH after anoxia: 2 min anoxia
Method: Using the same experimental procedure as in Example 3, in vivo pH buffering property of guanidinoethanesulfonic acid against the in vivo intracellular acidosis and pH depression caused by anoxia was evaluated.
Aqueous solution of guanidinoethanesulfonic acid (0.3M) was administered daily intraperitoneally to five mice at a dose of 3.75 mmole/kg/day for a period of 14 days. The same number of control mice (5) received intraperitoneal administration of physiological saline solution at a dose of 0.25 ml/animal/day for the same period (14 days).
After the 14 days of administration period of GES or saline, animals were placed in a chamber filled with pure 100% nitrogen for 2 minutes to produce the anoxia state. The pH of the brain was measured in vivo before and after the anoxia by the technique of ^31 P spectroscopy using Omega-7 Tesla Magnetic Resonance Spectrophotometer.

[7] = charge state in brain cytosol from pKa; conditions: sulfate
From the text: (Soc. Neurosci., 21 Annual Meeting, Abstract, 1078, Oct. 5, 1992). Entry of GES across the blood-brain barrier (BBB) is likely to be in the uncharged form. Following free diffusion into the cytosol, the ratio between uncharged and charged forms will equilibrate according to cytosolic pH and the pKa value of GES.
Following free diffusion into cytosol, the ratio between charged (RH3^+) and uncharged forms will equilibrate according to cytosolic pH and their respective pKa values.

[8] = observation of behavior and respiratory pattern; format: in vivo, Adult Swiss mice; conditions: two weeks i.p.
From the text: Adult Swiss mice (BK-1 male 20 g) purchased from Bantin & Kingman, Fremont, Calif., were used. Each batch consisted of 15 mice. Within each batch, five mice were selected randomly to be in the GES, taurine, or control group. A taurine group was included to serve as additional control.

pKa determination = format: physicochemical; conditions: read-out: pKa value (guanidino/amidino moiety)
Method: The mixture was heated to 60° C. and maintained at this temperature until evolution of gas ceased. The solution was cooled on ice until crystals were formed. Following the filtration, the crystals were dissolved in a minimum of distilled water and were recrystallized three times from water. Purity of GES was confirmed by proton NMR spectroscopy at 500 MHz (GE Omega-500). The pKa value of the amino moiety of GES was determined to be 12.48
GES was prepared as described above. Taurine and methyl isothiopseudourea were purchased from Sigma (St. Louis, Mo.). […] The mixture was heated to 60° C. and maintained at this temperature until evolution of gas ceased. The solution was cooled on ice to crystalize GES, and filtered. The crystals were dissolved in a minimal amount of distilled water and then recrystallized three times from water. The purity of GES was confirmed by proton NMR spectroscopy at 500 MHz (GE Omega-500). The pKa value of the amidino moiety of GES was determined to be 12.48.

[9] = listed as guanidinoethane sulfate

N=C(N)NCCS(=O)(=O)O [GES, guanidinoethane sulfate]
brain GES level relative to saline group [1]: about 7 times | effect on taurine transport into the brain (in words) [2]: competitive inhibitor of taurine transport into the brain; also recorded: effectively competes with and inhibits taurine transport into the brain | mortality, 2.5 minutes of anoxia ([3]; 14 days i.p. pretreatment): zero | mortality, 2.75 minutes of anoxia ([3]; 14 days i.p. pretreatment): 20% | protection against 2.5 minutes anoxia ([3]; FIG. 1): 100% | protection against anoxia / survival (in words) ([3]; listed as sodium guanidinoethane sulfate): effectively prevent lactic acidosis caused by complete oxygen deficiency | protection against anoxia / survival (in words) [3]: more effective than pretreatment with taurine or saline; also recorded: enhance the survival rate of mice exposed to anoxia; also recorded: significantly enhances the survival rate of adult mice exposed to anoxia | blood-brain barrier crossing (in words) ([4]; listed as Guanidinoethanesulfonic acid): ability to cross the blood-brain barrier | blood-brain barrier crossing (in words) [4]: crosses the blood brain barrier in the uncharged form | travelling distance before ischemia ([5]; GES-treated gerbils): approximately 150 m/hours | travelling distance of ischemia control vs GES ischemia group ([5]; first day after ischemia): more than 2.5 times | post-ischemia hyperactivity (in words) ([5]; in vivo, sulfate): did not experienced such hyperactivity periods; also recorded: significantly suppressed; also recorded: able to suppress post-ischemic hyperactivity to close to normal levels | brain pH after anoxia [6, 9]: 7.05±0.05 | brain pH before anoxia [6, 9]: 7.16±0.04 | brain pH after anoxia ([6]; sulfate): 7.05 | brain pH before anoxia ([6]; sulfate): 7.16 | prevention of decrease in brain pH (in words) ([6]; p<0.05, listed as guanidinoethane sulfate): effectively protects the brain cell from the acidosis damage | prevention of decrease in brain pH (in words) ([6]; p<0.05, sulfate): significantly (p<0.05) prevented the decrease in the cellular pH | charge state in brain cytosol (in words) [7]: virtually all GES in brain cytosol is in the charged form | observable adverse effects in behavior or respiratory pattern [8]: did not show any observable adverse effects | pKa (pKa determination): 12.5
